The text below walks through data of patent US9486506B2 (Novo Nordisk A/S, priority 2011, dated 2016).

The structures appear in SMILES notation. Numbered stars: 1 amine (or outer) side, 2 acyl side, 3 side chain; on linkers, the order of the positions; unused ones are H or OH. Side chains are listed from the residue outwards. Peptide text beside a SMILES is read from it. * marks the point of attachment. C18 diacid = O=C(O)CCCCCCCCCCCCCCCCC(=O)*; γGlu = O=C(O)[C@H](CCC(=O)[*:2])N[*:1]; AEEA = NCCOCCOCC(=O)O

A short description of data set [1]: Assay (X) Chemical stability assessment by RP-UPLC. The format is physicochemical. The note with it: pH 8.15, 14 days at 37° C. vs 5° C., 333 μM. As to the method: Chemical Stability Assessment
Lyophilized samples were dissolved in buffer (see below for detailed compositions) to a final concentration of 333 μM and a pH of 8.15, and were incubated for 14 days at 5° C. and 37° C. followed by RP-UPLC analysis. Purity was defined as the area percentage of the main peak in relation to the total area of all integrated peaks in each chromatogram. Purity loss after 14 days at 37° C. was determined as the difference in purity between the samples incubated at 5° C. and 37° C., divided by the purity of the sample after incubation for 14 days at 5° C.
RP-UPLC analysis was performed using a Waters BEH130 2.1 mm×150 mm, 1.7 μm column operated at 50° C. and a flow rate of 0.4 mL/min using a mobile phase system consisting of typically A: 50 mM Phosphate, 10 w/w % Acetonitrile pH 3 and B: 80 v/v Acetonitrile. UV-detection was performed at 215 nm. The typical gradient profile used for most of the samples is shown below.
For some individual analogues eluting at substantially different retention times compared with the majority of analogues, some adjustments to the gradient profile were made to better enable purity assessment comparison across samples. Also the composition of the channel B mobile phase component was in some of the analyses exchanged for a 90 v/v % Acetonitrile solvent solution in an attempt to better handle carry-over of material from one injection to the next in the sequence. This was however compensated for by recalculating the gradient profile appropriately.
Buffer: • 50 mM Dinatriumphosphatdihydrat • 184 mM Propylenglycol • 58 mM Phenol • pH adjusted to 8.15 with H3PO4. In cases where pH was adjusted to 8.15 after re-suspension of analogues, 0.2 M NaOH was used. Assay (XI) Pharmacokinetic Study in Minipigs

The target in a further data set is T1, glucagon receptor (Homo sapiens, UniProt P47871).
T1 construct: expressed in transfected cells
Put plainly: Assay (I) Glucagon activity (cAMP biosensor, FLIPR). It is filed as cell-based.

T1 sequence (P47871 26-477): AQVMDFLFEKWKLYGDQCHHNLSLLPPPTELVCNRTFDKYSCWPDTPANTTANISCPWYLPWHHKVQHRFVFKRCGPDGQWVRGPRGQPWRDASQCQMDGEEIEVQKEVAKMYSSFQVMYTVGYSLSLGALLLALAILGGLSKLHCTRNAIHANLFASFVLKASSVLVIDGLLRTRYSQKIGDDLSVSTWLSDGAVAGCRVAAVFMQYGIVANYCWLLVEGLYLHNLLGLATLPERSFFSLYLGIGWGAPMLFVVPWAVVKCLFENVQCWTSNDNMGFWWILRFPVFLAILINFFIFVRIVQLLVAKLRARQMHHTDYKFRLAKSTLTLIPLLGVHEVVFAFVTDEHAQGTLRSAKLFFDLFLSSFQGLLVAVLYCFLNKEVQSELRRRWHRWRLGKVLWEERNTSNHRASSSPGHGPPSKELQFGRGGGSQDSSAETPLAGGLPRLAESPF

By EC50 is commonly meant the concentration that produces a half-maximal response. The low end stands for greater potency, the high end for weaker potency. As for `CC(C)C[C@H](NC(=O)[C@H](Cc1ccc(O)cc1)NC(=O)[C@H](CCCNC(=N)N)NC(=O)[C@H](CO)NC(=O)[C@H](Cc1ccc(O)cc1)NC(=O)[C@H](CC(=O)O)NC(=O)[C@H](CO)NC(=O)[C@@H](NC(=O)[C@H](Cc1ccccc1)NC(=O)[C@@H](NC(=O)CNC(=O)[C@H](CCC(N)=O)NC(=O)[C@H](CO)NC(=O)[C@@H](N)Cc1c[nH]cn1)[C@@H](C)O)[C@@H](C)O)C(=O)N[C@@H](CC(=O)O)C(=O)N[C@@H](CCCNC(=N)N)C(=O)N[C@@H](CCCNC(=N)N)C(=O)N[C@@H](CCCNC(=N)N)C(=O)N[C@@H](C)C(=O)N[C@@H](CCC(N)=O)C(=O)N[C@@H](CC(=O)O)C(=O)N[C@@H](Cc1ccccc1)C(=O)N[C@H](C(=O)N[C@@H](CCCCNC(=O)CC[C@H](NC(=O)CC[C@H](NC(=O)COCCOCCNC(=O)COCCOCCNC(=O)CC[C@H](NC(=O)CCCCCCCCCCCCCCCCC(=O)O)C(=O)O)C(=O)O)C(=O)O)C(=O)N[C@@H](Cc1c[nH]c2ccccc12)C(=O)N[C@@H](CC(C)C)C(=O)N[C@@H](CC(C)C)C(=O)N[C@@H](CO)C(=O)N[C@H](C(=O)O)[C@@H](C)O)C(C)C` [Example 20, N^ε24-[(4S)-4-carboxy-4-[[(4S)-4-carboxy-4-[[2-[2-[2-[[2-[2-[2-[[(4S)-4-carboxy-4-(17-carboxyheptadecanoylamino)butanoyl]amino]ethoxy]ethoxy]acetyl]amino]ethoxy]ethoxy]acetyl]amino]butanoyl]amino]butanoyl]-[Arg^12,Arg^16,Lys^24,Leu^27,Ser^28]-Glucagon] (H-HSQGTFTSDYSRYLDRRRAQDFVK([γGlu-γGlu-AEEA-AEEA-γGlu-C18 diacid])WLLST-OH), in data set [1], the “Chemical stability [Purity loss/14 days 37 C.]” value turned out to be 10.4%. Further, the EC50 on glucagon receptor was 0.355 nM.
On the same counts, the results for `CC(C)C[C@H](NC(=O)[C@H](Cc1c[nH]c2ccccc12)NC(=O)[C@H](CCCCNC(=O)CC[C@H](NC(=O)CC[C@H](NC(=O)COCCOCCNC(=O)COCCOCCNC(=O)CC[C@H](NC(=O)CCCCCCCCCCCCCCCCC(=O)O)C(=O)O)C(=O)O)C(=O)O)NC(=O)[C@@H](NC(=O)[C@H](Cc1ccccc1)NC(=O)[C@H](CC(=O)O)NC(=O)[C@H](CCC(N)=O)NC(=O)[C@H](C)NC(=O)[C@H](CCCNC(=N)N)NC(=O)[C@H](CCCNC(=N)N)NC(=O)[C@@H](NC(=O)[C@H](CC(=O)O)NC(=O)[C@H](CC(C)C)NC(=O)[C@H](Cc1ccc(O)cc1)NC(=O)[C@H](CCCNC(=N)N)NC(=O)[C@H](CO)NC(=O)[C@H](Cc1ccc(O)cc1)NC(=O)[C@H](CC(=O)O)NC(=O)[C@H](CO)NC(=O)[C@@H](NC(=O)[C@H](Cc1ccccc1)NC(=O)[C@@H](NC(=O)CNC(=O)[C@H](CCC(N)=O)NC(=O)[C@H](CO)NC(=O)[C@@H](N)Cc1c[nH]cn1)[C@@H](C)O)[C@@H](C)O)C(C)C)C(C)C)C(=O)N[C@@H](CC(C)C)C(=O)N[C@@H](CO)C(=O)N[C@H](C(=O)O)[C@@H](C)O` [Example 21, N^ε24-[(4S)-4-carboxy-4-[[(4S)-4-carboxy-4-[[2-[2-[2-[[2-[2-[2-[[(4S)-4-carboxy-4-(17-carboxyheptadecanoylamino)butanoyl]amino]ethoxy]ethoxy]acetyl]amino]ethoxy]ethoxy]acetyl]amino]butanoyl]amino]butanoyl]-[Arg^12,Val^16,Lys^24,Leu^27,Ser^28]-Glucagon] (H-HSQGTFTSDYSRYLDVRRAQDFVK([γGlu-γGlu-AEEA-AEEA-γGlu-C18 diacid])WLLST-OH) are 2.9% and 1.32 nM.
On the same counts, the results for `CC(C)C[C@H](NC(=O)[C@H](Cc1c[nH]c2ccccc12)NC(=O)[C@H](CCCCNC(=O)CC[C@H](NC(=O)CC[C@H](NC(=O)COCCOCCNC(=O)COCCOCCNC(=O)CC[C@H](NC(=O)CCCCCCCCCCCCCCCCC(=O)O)C(=O)O)C(=O)O)C(=O)O)NC(=O)[C@@H](NC(=O)[C@H](Cc1ccccc1)NC(=O)[C@H](CC(=O)O)NC(=O)[C@H](CCC(N)=O)NC(=O)[C@H](C)NC(=O)[C@H](CCCNC(=N)N)NC(=O)[C@H](CCCNC(=N)N)NC(=O)[C@@H](NC(=O)[C@H](CC(=O)O)NC(=O)[C@H](CC(C)C)NC(=O)[C@H](Cc1ccc(O)cc1)NC(=O)[C@H](CCCNC(=N)N)NC(=O)[C@H](CO)NC(=O)[C@H](Cc1ccc(O)cc1)NC(=O)[C@H](CC(=O)O)NC(=O)[C@H](CO)NC(=O)[C@@H](NC(=O)[C@H](Cc1ccccc1)NC(=O)[C@@H](NC(=O)CNC(=O)[C@H](CCC(N)=O)NC(=O)[C@H](CO)NC(=O)[C@@H](N)Cc1c[nH]cn1)[C@@H](C)O)[C@@H](C)O)[C@@H](C)O)C(C)C)C(=O)N[C@@H](CC(C)C)C(=O)N[C@@H](CO)C(=O)N[C@H](C(=O)O)[C@@H](C)O` [Example 22, N^ε24-[(4S)-4-carboxy-4-[[(4S)-4-carboxy-4-[[2-[2-[2-[[2-[2-[2-[[(4S)-4-carboxy-4-(17-carboxyheptadecanoylamino)butanoyl]amino]ethoxy]ethoxy]acetyl]amino]ethoxy]ethoxy]acetyl]amino]butanoyl]amino]butanoyl]-[Arg^12,Thr^16,Lys^24,Leu^27,Ser^28]-Glucagon] (H-HSQGTFTSDYSRYLDTRRAQDFVK([γGlu-γGlu-AEEA-AEEA-γGlu-C18 diacid])WLLST-OH) are 8.8% and 0.297 nM.
On the same counts, the results for `CC[C@H](C)[C@H](NC(=O)[C@H](CC(=O)O)NC(=O)[C@H](CC(C)C)NC(=O)[C@H](Cc1ccc(O)cc1)NC(=O)[C@H](CCCNC(=N)N)NC(=O)[C@H](CO)NC(=O)[C@H](Cc1ccc(O)cc1)NC(=O)[C@H](CC(=O)O)NC(=O)[C@H](CO)NC(=O)[C@@H](NC(=O)[C@H](Cc1ccccc1)NC(=O)[C@@H](NC(=O)CNC(=O)[C@H](CCC(N)=O)NC(=O)[C@H](CO)NC(=O)[C@@H](N)Cc1c[nH]cn1)[C@@H](C)O)[C@@H](C)O)C(=O)N[C@@H](CCCNC(=N)N)C(=O)N[C@@H](CCCNC(=N)N)C(=O)N[C@@H](C)C(=O)N[C@@H](CCC(N)=O)C(=O)N[C@@H](CC(=O)O)C(=O)N[C@@H](Cc1ccccc1)C(=O)N[C@H](C(=O)N[C@@H](CCCCNC(=O)CC[C@H](NC(=O)CC[C@H](NC(=O)COCCOCCNC(=O)COCCOCCNC(=O)CC[C@H](NC(=O)CCCCCCCCCCCCCCCCC(=O)O)C(=O)O)C(=O)O)C(=O)O)C(=O)N[C@@H](Cc1c[nH]c2ccccc12)C(=O)N[C@@H](CC(C)C)C(=O)N[C@@H](CC(C)C)C(=O)N[C@@H](CO)C(=O)N[C@H](C(=O)O)[C@@H](C)O)C(C)C` [Example 23, N^ε24-[(4S)-4-carboxy-4-[[(4S)-4-carboxy-4-[[2-[2-[2-[[2-[2-[2-[[(4S)-4-carboxy-4-(17-carboxyheptadecanoylamino)butanoyl]amino]ethoxy]ethoxy]acetyl]amino]ethoxy]ethoxy]acetyl]amino]butanoyl]amino]butanoyl]-[Arg^12,Ile^16,Lys^24,Leu^27,Ser^28]-Glucagon] (H-HSQGTFTSDYSRYLDIRRAQDFVK([γGlu-γGlu-AEEA-AEEA-γGlu-C18 diacid])WLLST-OH) are 3.1% and 1.04 nM.
`CC(C)C[C@H](NC(=O)[C@H](CC(=O)O)NC(=O)[C@H](CC(C)C)NC(=O)[C@H](Cc1ccc(O)cc1)NC(=O)[C@H](CCCNC(=N)N)NC(=O)[C@H](CO)NC(=O)[C@H](Cc1ccc(O)cc1)NC(=O)[C@H](CC(=O)O)NC(=O)[C@H](CO)NC(=O)[C@@H](NC(=O)[C@H](Cc1ccccc1)NC(=O)[C@@H](NC(=O)CNC(=O)[C@H](CCC(N)=O)NC(=O)[C@H](CO)NC(=O)[C@@H](N)Cc1c[nH]cn1)[C@@H](C)O)[C@@H](C)O)C(=O)N[C@@H](CCCNC(=N)N)C(=O)N[C@@H](CCCNC(=N)N)C(=O)N[C@@H](C)C(=O)N[C@@H](CCC(N)=O)C(=O)N[C@@H](CC(=O)O)C(=O)N[C@@H](Cc1ccccc1)C(=O)N[C@H](C(=O)N[C@@H](CCCCNC(=O)CC[C@H](NC(=O)CC[C@H](NC(=O)CC[C@H](NC(=O)CCCCCCCCCCCCCCCCC(=O)O)C(=O)O)C(=O)O)C(=O)O)C(=O)N[C@@H](Cc1c[nH]c2ccccc12)C(=O)N[C@@H](CC(C)C)C(=O)N[C@@H](CC(C)C)C(=O)N[C@@H](CO)C(=O)N[C@H](C(=O)O)[C@@H](C)O)C(C)C` [Example 29, N^ε24-[(4S)-4-carboxy-4-[[(4S)-4-carboxy-4-[[(4S)-4-carboxy-4-(17-carboxyheptadecanoylamino)butanoyl]amino]butanoyl]amino]butanoyl]-[Arg^12,Leu^16,Lys^24,Leu^27,Ser^28]-Glucagon] (H-HSQGTFTSDYSRYLDLRRAQDFVK([γGlu-γGlu-γGlu-C18 diacid])WLLST-OH): the “Chemical stability [Purity loss/14 days 37 C.]” value in data set [1] stood at 2.8%. Further, the EC50 on glucagon receptor came to 1.32 nM.
